Measured values from ChEMBL document CHEMBL3286395, “Tabercarpamines A-J, apoptosis-inducing indole alkaloids from the leaves of Tabernaemontana corymbosa” (J Nat Prod, 2014).

Tests used:
MCF7 = test: Cytotoxicity against human MCF7 cells assessed as decrease in cell viability after 48 hrs by MTT assay; format: functional, cell-based; details: MCF7, 48 h
HepG2 [1] = test: Cytotoxicity against human HepG2 cells assessed as decrease in cell viability after 48 hrs by MTT assay; format: functional, cell-based; details: HepG2, 48 h
SMMC-7721 = test: Cytotoxicity against human SMMC7721 cells assessed as decrease in cell viability after 48 hrs by MTT assay; format: functional, cell-based; details: SMMC-7721, 48 h
HepG2 [2] = test: Induction of apoptosis in human HepG2 cells assessed as necrotic cells at 6.25 uM after 48 hrs using annexin V-FITC/propidium iodide staining by flow cytometry (reference value: 2.39%); format: functional
HepG2 [3] = test: Induction of apoptosis in human HepG2 cells assessed as late stage apoptotic cells at 6.25 uM after 48 hrs using annexin V-FITC/propidium iodide staining by flow cytometry (reference value: 0.65%); format: functional
HepG2 [4] = test: Induction of apoptosis in human HepG2 cells assessed as viable cells at 6.25 uM after 48 hrs using annexin V-FITC/propidium iodide staining by flow cytometry (reference value: 86.80%); format: functional; details: HepG2, 48 h, read-out: Activity
HepG2 [5] = test: Induction of apoptosis in human HepG2 cells assessed as early stage apoptotic cells at 6.25 uM after 48 hrs using annexin V-FITC/propidium iodide staining by flow cytometry (reference value: 10.15%); format: functional
HepG2 [6] = test: Induction of apoptosis in human HepG2 cells assessed as necrotic cells at 12.50 uM after 48 hrs using annexin V-FITC/propidium iodide staining by flow cytometry (reference value: 2.39%); format: functional
HepG2 [7] = test: Induction of apoptosis in human HepG2 cells assessed as late stage apoptotic cells at 12.50 uM after 48 hrs using annexin V-FITC/propidium iodide staining by flow cytometry (reference value: 0.65%); format: functional
HepG2 [8] = test: Induction of apoptosis in human HepG2 cells assessed as viable cells at 12.50 uM after 48 hrs using annexin V-FITC/propidium iodide staining by flow cytometry (reference value: 86.80%); format: functional; details: HepG2, 48 h, read-out: Activity
HepG2 [9] = test: Induction of apoptosis in human HepG2 cells assessed as early stage apoptotic cells at 12.50 uM after 48 hrs using annexin V-FITC/propidium iodide staining by flow cytometry (reference value: 10.15%); format: functional
HepG2 [10] = test: Induction of apoptosis in human HepG2 cells assessed as necrotic cells at 25 uM after 48 hrs using annexin V-FITC/propidium iodide staining by flow cytometry (reference value: 2.39%); format: functional
HepG2 [11] = test: Induction of apoptosis in human HepG2 cells assessed as late stage apoptotic cells at 25 uM after 48 hrs using annexin V-FITC/propidium iodide staining by flow cytometry (reference value: 0.65%); format: functional
HepG2 [12] = test: Induction of apoptosis in human HepG2 cells assessed as viable cells at 25 uM after 48 hrs using annexin V-FITC/propidium iodide staining by flow cytometry (reference value: 86.80%); format: functional; details: HepG2, 48 h, read-out: Activity
HepG2 [13] = test: Induction of apoptosis in human HepG2 cells assessed as early stage apoptotic cells at 25 uM after 48 hrs using annexin V-FITC/propidium iodide staining by flow cytometry (reference value: 10.15%); format: functional
HepG2 [14] = test: Induction of apoptosis in human HepG2 cells assessed as apoptotic rate at 6.25 uM after 48 hrs using annexin V-FITC/propidium iodide staining by flow cytometry (reference value: 10.80%); format: functional
HepG2 [15] = test: Induction of apoptosis in human HepG2 cells assessed as apoptotic rate at 12.50 uM after 48 hrs using annexin V-FITC/propidium iodide staining by flow cytometry (reference value: 10.80%); format: functional
HepG2 [16] = test: Induction of apoptosis in human HepG2 cells assessed as apoptotic rate at 25 uM after 48 hrs using annexin V-FITC/propidium iodide staining by flow cytometry (reference value: 10.80%); format: functional

SMILES: C/C=C1/CN(C)[C@H]2Cc3c([nH]c4ccccc34)[C@H](c3cc4c(cc3OC)c3c5n4C[C@H]4C[C@@H](CC)[C@@H](NCC3)[C@@]5(C(=O)OC)C4)C[C@H]1[C@]2(CO)C(=O)OC
- IC50 (MCF7): 11 µM
- IC50 (HepG2 [1]): 11.3 µM
- IC50 (SMMC-7721): 15 µM

SMILES: CC[C@@]12C[C@@H](C(=O)OC)C3=Nc4cc(OC)ccc4[C@@]34CCN(CCOC1=O)[C@H]24
- IC50 (MCF7): > 100 µM
- IC50 (HepG2 [1]): > 100 µM
- IC50 (SMMC-7721): > 100 µM

SMILES: COC(=O)[C@@]12C[C@@H]3C[C@H]([C@H](C)O)[C@H]1NCCc1c2n(c2cc(OC)ccc12)C3
- IC50 (MCF7): > 100 µM
- IC50 (HepG2 [1]): > 100 µM
- IC50 (SMMC-7721): > 100 µM

SMILES: CC[C@@]12C[C@@H](C(=O)OC)C3=Nc4cc(OC)ccc4[C@@]34CCN(CCOC1=O)[C@@H]24
- IC50 (MCF7): > 100 µM
- IC50 (HepG2 [1]): > 100 µM
- IC50 (SMMC-7721): > 100 µM

SMILES: C/C=C1/CN(C)[C@H]2Cc3c([nH]c4ccccc34)[C@H](c3c(OC)ccc4c5c([nH]c34)[C@@]3(C(=O)OC)C[C@H]4C[C@H](CC)[C@@H]3N(CC5)C4)C[C@H]1[C@]2(CO)C(=O)OC
- IC50 (MCF7): 14.6 µM
- IC50 (HepG2 [1]): 13.1 µM
- IC50 (SMMC-7721): 12.6 µM

SMILES: CC[C@]1(C(=O)O)C[C@@H](C(=O)OC)C2=Nc3cc(OC)ccc3[C@@]23CCN(CCO)[C@H]13
- IC50 (MCF7): > 100 µM
- IC50 (HepG2 [1]): > 100 µM
- IC50 (SMMC-7721): > 100 µM

SMILES: COC(=O)[C@@]12C[C@@H]3C[C@H]([C@H](C)O)[C@H]1NCCc1c2n(c2ccccc12)C3
- IC50 (MCF7): > 100 µM
- IC50 (HepG2 [1]): > 100 µM
- IC50 (SMMC-7721): > 100 µM

SMILES: C/C=C1/CN(C)[C@H]2Cc3c([nH]c4ccccc34)[C@H](c3cc4c5c([nH]c4cc3OC)[C@@]3(C(=O)OC)C[C@H]4C[C@H](CC)[C@H]3N(CC5)C4)C[C@H]1[C@]2(CO)C(=O)OC
- IC50 (MCF7): 38 µM
- IC50 (HepG2 [1]): 12.8 µM
- IC50 (SMMC-7721): 4.63 µM

SMILES: CC[C@H]1C[C@@H]2Cn3c4c(c5ccc(OC)cc53)CCN[C@H]1[C@@]4(C(=O)OC)C2
- IC50 (MCF7): > 100 µM
- IC50 (HepG2 [1]): > 100 µM
- IC50 (SMMC-7721): > 100 µM

SMILES: CC[C@]1(C(=O)O)C[C@@H](C(=O)OC)C2=Nc3cc(OC)ccc3[C@@]23CCN(CCO)[C@@H]13
- IC50 (MCF7): > 100 µM
- IC50 (HepG2 [1]): > 100 µM
- IC50 (SMMC-7721): > 100 µM

SMILES: CC[C@H]1C[C@H]2C[C@@]3(C(=O)OC)c4c(c5ccc(OC)cc5n4C2=O)CCN[C@H]13
- IC50 (MCF7): > 100 µM
- IC50 (HepG2 [1]): > 100 µM
- IC50 (SMMC-7721): > 100 µM

SMILES: C/C=C1/CN(C)[C@H]2Cc3c([nH]c4ccccc34)[C@H](c3cc4c5c6n(c4cc3OC)C[C@H]3C[C@@H](CC)[C@@H](NCC5)[C@@]6(C(=O)OC)C3)C[C@H]1[C@]2(CO)C(=O)OC
- IC50 (MCF7): 8.54 µM
- IC50 (HepG2 [1]): 3.31 µM
- IC50 (SMMC-7721): 6.76 µM
- Activity (HepG2 [2]): 3.17%
- Activity (HepG2 [3]): 1.63%
- viability at 6.25 µM (HepG2 [4]): 85%
- Activity (HepG2 [5]): 10.19%
- Activity (HepG2 [6]): 7.85%
- Activity (HepG2 [7]): 8.47%
- viability at 12.5 µM (HepG2 [8]): 72.4%
- Activity (HepG2 [9]): 11.3%
- Activity (HepG2 [10]): 15.59%
- Activity (HepG2 [11]): 30.97%
- viability at 25 µM (HepG2 [12]): 33.9%
- Activity (HepG2 [13]): 19.54%
- Activity (HepG2 [14]): 11.82%
- Activity (HepG2 [15]): 19.77%
- Activity (HepG2 [16]): 50.51%
